PMC8961585, “Inhibition of Polyglutamine Misfolding with D-Enantiomeric Peptides Identified by Mirror Image Phage Display Selection” (Biomolecules, 2022)

Experiments:
[1] = Spontaneous aggregation of polyglutamine peptides (ThT); type: physicochemical; conditions: no inhibitor, TBS pH 7.5, 37 °C
Method: (§1) Following the disaggregation protocol that Chen et al. published, the polyglutamine proteins were incubated for three days in 1:1 TFA/Hexafluoroisopropanol (HFIP) or overnight in 100% trifluoroacetic acid (TFA). Afterwards the solvent was evaporated with N2 gas treatment and the polyglutamine protein redissolved in the experiment buffer.
(§2) Thioflavin T (ThT) assays were performed to monitor the time-dependent formation of amyloidogenic aggregates. The assays were performed at 37 °C in TBS pH 7.5 (15 µM ThT) with 300 rpm double orbital shaking. All buffers were sterile filtrated beforehand. Polyglutamine proteins were disaggregated as described before. The peptides were pre-diluted in TBS pH 7.5. The disaggregated polyglutamine protein in buffer was mixed with 15 µM ThT and the pre-diluted peptides in a 96-well half-area flat-bottom microplate (Corning, New York, NY, USA). During the experiment all wells contained 100 µL ThT solution. Sealing the plate with foil (Thermo Fisher Scientific, Waltham, MA, USA) helped to prevent evaporation. The progression of fluorescence intensity was tracked by a microplate reader (BMG Labtech, Ortenberg, Germany).
(§3) Figure 1 Disaggregation of ARQ46; Examination of ARQ46 post disaggregation. […] (B) ThT-Measurement of 15 µM ARQ46, disaggregated with 1:1 TFA/HFIP, in TBS pH 7.5 measured at 37 °C.

[2] = CD secondary structure of polyglutamine peptides; type: physicochemical
Method: as §1
After disaggregation, polyglutamine proteins were dissolved in TBS pH 7.5 and measured in a quartz crystal cuvette with 1 mm light path (Hellma Analytics, Müllheim, Germany) in a CD spectrometer (J-1100, Jasco Deutschland GmbH, Pfungstadt, Germany) with 4 acquisitions. The High tension voltage (HT) was monitored throughout the experiment. Data for which the HT exceeded 600 V were excluded. Buffer measurements served as references. Analogous, samples containing 50 µM ARQ46 and 50 µM QF2D-1 or QF2D-2 were measured and referenced with the measurement of 50 µM QF2D-1 or QF2D-2 alone. […] The CD spectra of the samples were monitored after 24 h, 48 h and 168 h of aggregation.
as §3
Figure 2 CD-spectrum of D-ARQ23 disaggregated with 100% TFA; Prior to the phage display selection D-ARQ23 was disaggregated with TFA to ensure selection on monomeric target. CD-spectrum was recorded in 10 mM Tris pH 8.

L-ARQ46 [3] = target: T1, L-ARQ46 (Homo sapiens, UniProt P10275); test: SPR binding to immobilized L-ARQ46; conditions: L-ARQ46 immobilized on CM5 chip via amine coupling (1400 RU); steady state affinity fit; TBS pH 7.5, 0.05% Tween, 25 °C; multi-cycle, up to 20 µM; data not shown
T1 construct: L-ARQ46; purchased peptides & elephants GmbH (Henningsdorf, Germany); host or cells: chemical synthesis
Method: Binding studies were performed with surface plasmon resonance (SPR) in a Biacore T200 device (Biacore, GE Healthcare, Uppsala, Sweden). The L-ARQ46 was immobilized on a CM5 Chip via amine coupling (1400 RU). The selected D-enantiomeric peptide compound QF2D-2 was dissolved in the running buffer (TBS pH 7.5 with 0.05% Tween) and served as the analyte in multi-cycle experiments, with the highest peptide concentration being 20 µM. Experiments were performed at 25 °C with a flow rate of 45 µL/min. After a contact time of 110 s and a dissociation time of 400 s, the surface was regenerated with low pH (Glycin-HCl, pH 2.2) for 30 s with a flow rate of 30 µL/min. The data were evaluated via affinity fit of the steady state using the biacore evaluation software.

L-ARQ46 [4] = target: T1, L-ARQ46; test: ThT aggregation assay of ARQ46 seeded with soluble aggregate fragments; type: biochemical; conditions: 15 µM ARQ46
Method: as §1, §2
For seeded experiments, the slope of the curve was considered instead of the lag-time because seeding eliminated the lag-time. The slope was determined by plotting the first values and fitting with a linear fit. The considered period (2 to 3.5 h) was similar for the curves compared with.
The disaggregated ARQ46 was diluted to 300 µM and incubated at 37 °C, 400 rpm. After 24 h large, white aggregates were visible in the tube. The sample was sonicated (Sonopuls, Bandelin electronic GmbH & Co. KG, Berlin, Germany) four times for 15 s with an amplitude of 60%. Between the sonification steps the sample was cooled on ice. Post sonification the sample was turbid. It was centrifuged at 100,000 g for 1 h at 4 °C to remove insoluble aggregates from the solution. The clear supernatant was used for seeding with soluble aggregate fragments.
Figure 5 QF2D-1, QF2D-2 and QF2D-6 inhibit the aggregation of ARQ46 in presence of soluble aggregate fragment seeds; ARQ46 was aggregated, and the solution was subject to spinning at 100,000 g in an ultracentrifuge. The supernatant was preincubated with 15 µM and 7.5 µM of one of the selected compounds in TBS at 37 °C. After 23 h, 15 µM monomeric ARQ46 were added, and the fluorescence intensity was measured every 15 min at λex = 448 nm and λem = 482 nm with agitation at 300 rpm between measurements. P8 served as a control compound that was not selected on polyglutamine, whereas QBP1 is claimed to bind polyglutamine tracts and inhibit polyglutamine-driven aggregation. (A) Fluorescence intensity of P8, QBP1, QF2D-1, QF2D-2 and QF2D-6 in equimolar and sub stoichiometric ratio at 90 h. (B) The data points acquired between 24 h and 26 h- shortly after monomer addition- were fitted with a linear fit. The slope was compared. (C) Measurement example of the described ThT-assay with ARQ46 (black), P8 (light grey), QBP1 (grey) and QF2D-2 (dark grey). The mean fluorescence intensity is shown for each time point. The experiment was performed in two-fold determination.

L-ARQ46 [5] = target: T1, L-ARQ46; test: ThT aggregation assay, monomeric ARQ46, unseeded; type: biochemical
Method: as §1, §2
The lag-time was estimated as follows: the average variation of the curve was determined with the last ten values of the steady state. […]
The progression of fluorescence intensity was measured every 30 min at λex = 410 nm and λem = 482 nm with 30 s agitation at 300 rpm before every measurement. (A) Fluorescence intensity measured at 90 h of the aggregation assay starting with 15 µM monomeric ARQ46 without peptide and with 15 µM QF2D-1, QF2D-2, QF2D-3, QF2D-4, QF2D-5, QF2D-6, QF2D-7, QF2D-8 or QF2D-9. […] The mean fluorescence intensity is shown for each time point. […]
Figure 8 Effect of different QF2D-2 concentrations on the aggregation of ARQ46; ThT assay with L-ARQ46 was performed at 37 °C in TBS pH 7.5. The progression of fluorescence intensity was measured every 30 min at λex = 410 nm and λem = 482 nm with 30 sec agitation at 300 rpm before every measurement. […] The mean fluorescence intensity is shown for each time point. […]

[6] = test system: polyglutamine disease mouse model; design: method as in PMID 18603372, PMID 23226463, PMID 23504628; conditions: cited from earlier work
polyglutamine proteins = conditions: cited from earlier work
Description: Patients suffering from polyglutamine diseases present with aggregates in their neurons before symptom onset and therefore probably also before treatments start. Thus, a promising drug candidate should inhibit the aggregation in presence of pre-formed aggregates. […] The effects of the compounds were compared with two controls. The first, P8, has been selected on SOD1 and should not bind to polyg ...

Drosophila = test system: Drosophila; design: method as in PMID 12761040; conditions: cited from earlier work
[7] = soluble aggregate seeds, slope 24 to 26 h, peptide concentration not stated (15 or 7.5 µM)

T1 sequence (P10275 with tags, fused parts or gaps): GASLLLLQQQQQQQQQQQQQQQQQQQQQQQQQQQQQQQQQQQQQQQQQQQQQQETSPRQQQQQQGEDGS

KKQQQQQQQQQQQQQQQQQQQQQQQ QQQQQQQQQQQQQQQQQQQQQQQKK [L-K2Q46K2, universal polyglutamine peptide]
Spontaneous aggregation [1]: spontaneously formed amyloid fibrils after few hours lag time

L-ARQ46: androgen receptor fragment with 46 consecutive glutamine residues
Beta-sheet structure after incubation ([2]; TBS pH 7.5, 37 °C, 400 rpm, 24 h): 100% | Secondary structure after disaggregation ([2]; freshly disaggregated (100% TFA)): a mixture of random coil and alpha-helical structure | Spontaneous aggregation [1]: spontaneously formed amyloid fibrils after few hours lag time

C[C@H](O)[C@@H](NC(=O)[C@@H](CO)NC(=O)[C@@H](Cc1c[nH]c2ccccc12)NC(=O)[C@@H](CCC(N)=O)NC(=O)[C@@H](CO)NC(=O)[C@@H](CCC(N)=O)NC(=O)[C@H](N)CO)C(=O)N1CCC[C@@H]1C(=O)N[C@H](CCC(N)=O)C(=O)NCC(=O)N[C@H](CCCCN)C(=O)N[C@H](Cc1c[nH]c2ccccc12)C(=O)N[C@H](CO)C(=O)N[C@H](Cc1c[nH]cn1)C(=O)N[C@H](Cc1c[nH]c2ccccc12)C(=O)N1CCC[C@@H]1C(=O)N[C@H](CCCNC(=N)N)C(=O)N[C@H](CCCNC(=N)N)C(=O)N[C@H](CCCNC(=N)N)C(=O)O [QF2D-2]
Kd (L-ARQ46 [3]): 11 µM | Reduction of slope compared to QBP1 (L-ARQ46 [4]; [7]): 86% | Reduction of slope compared with P8 (L-ARQ46 [4]; [7]): 96% | Fluorescence intensity of the steady state, % of that measured for ARQ46 (L-ARQ46 [5]; at 90 h, equimolar, 15 µM ARQ46 and 15 µM peptide, TBS pH 7.5, 37 °C, λex 410 nm, λem 482 nm, three-fold determination): approx. 70%

YDTPKHKDKTWPMM [P8]
Slope of ThT curve after monomer addition (24 to 26 h), in words (L-ARQ46 [4]; 15 or 7.5 µM peptide preincubated 23 h with soluble seeds, TBS, 37 °C, two-fold determination): the steepest | Lag-phase in presence of soluble aggregates (L-ARQ46 [4]; soluble aggregate fragment seeds, TBS, 37 °C, two-fold determination): no lag-phase observable | Effect on aggregation of monomeric ARQ46, equimolar (repeat with controls) (L-ARQ46 [5]; unseeded, equimolar, data not shown): slight inhibiting effect

SNWKWWPGIFD [QBP1]
Neurological effect in mouse model [6]: did not yield beneficial neurological effects | Inhibition of polyglutamine aggregation (polyglutamine proteins): claimed to inhibit the aggregation of polyglutamine proteins | Effect in presence of soluble aggregate fragments relative to selected peptides (L-ARQ46 [4]; soluble aggregate seeds): considerably smaller than that of the selected peptides | Therapeutic effect in Drosophila (Drosophila): had a therapeutic effect in Drosophila | Effect on aggregation of monomeric ARQ46 (repeat with controls) (L-ARQ46 [5]; unseeded, ratio not stated, data not shown): drastically inhibited the aggregation
